The record followed here is patent publication US20130303507A1 (Novartis AG, priority 2011, published 2013).

Molecules are shown by their SMILES.

This assay concerns the target Cdk9/cyclinT1 (Homo sapiens, UniProt P50750). Put plainly: Cdk9/cyclinT1 IMAP protocol (fluorescence polarization). The conditions noted are these: IC-50, CDK9; lower limit of assay 0.0005 micromolar.

Chain of Cdk9/cyclinT1 (P50750 whole entry): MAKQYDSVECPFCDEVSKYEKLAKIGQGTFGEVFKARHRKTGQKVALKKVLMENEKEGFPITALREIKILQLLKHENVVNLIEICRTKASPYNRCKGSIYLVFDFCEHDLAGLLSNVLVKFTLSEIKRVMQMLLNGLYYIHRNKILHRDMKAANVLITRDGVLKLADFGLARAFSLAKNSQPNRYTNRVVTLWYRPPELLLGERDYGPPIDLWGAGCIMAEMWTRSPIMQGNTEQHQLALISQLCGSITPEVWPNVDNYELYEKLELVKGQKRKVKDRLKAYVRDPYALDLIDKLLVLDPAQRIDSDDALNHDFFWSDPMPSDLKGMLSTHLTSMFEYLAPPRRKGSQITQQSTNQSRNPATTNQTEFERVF
Chain of Cdk9/cyclinT1 (O60563 whole entry partner): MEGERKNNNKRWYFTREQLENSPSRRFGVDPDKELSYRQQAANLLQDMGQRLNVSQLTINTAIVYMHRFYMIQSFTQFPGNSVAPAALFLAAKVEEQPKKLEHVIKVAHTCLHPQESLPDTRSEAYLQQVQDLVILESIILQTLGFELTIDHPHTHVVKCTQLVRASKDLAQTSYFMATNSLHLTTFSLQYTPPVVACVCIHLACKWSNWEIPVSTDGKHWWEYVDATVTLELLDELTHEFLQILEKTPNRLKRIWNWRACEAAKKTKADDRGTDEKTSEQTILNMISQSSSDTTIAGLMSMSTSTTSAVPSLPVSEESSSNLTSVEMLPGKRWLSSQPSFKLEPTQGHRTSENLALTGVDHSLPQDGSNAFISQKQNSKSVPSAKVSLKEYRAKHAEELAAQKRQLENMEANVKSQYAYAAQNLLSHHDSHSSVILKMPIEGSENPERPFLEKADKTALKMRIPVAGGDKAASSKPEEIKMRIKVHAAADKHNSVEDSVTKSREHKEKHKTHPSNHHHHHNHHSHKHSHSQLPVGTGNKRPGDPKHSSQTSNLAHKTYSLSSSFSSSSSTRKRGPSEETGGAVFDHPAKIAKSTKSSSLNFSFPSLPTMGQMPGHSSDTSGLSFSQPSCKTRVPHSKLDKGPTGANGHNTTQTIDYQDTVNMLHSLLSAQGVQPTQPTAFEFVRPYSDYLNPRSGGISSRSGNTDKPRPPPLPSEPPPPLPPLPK

Compound `COCCN(CCOC)[C@H]1CC[C@H](Nc2cc(-c3cccc(NCC4(C#N)CCOCC4)n3)c(Cl)cn2)CC1` [Compound 446, 4-(((2′-((trans-4-(bis(2-methoxyethyl)amino)cyclohexyl)amino)-5′-chloro-[2,4′-bipyridin]-6-yl)amino)methyl)tetrahydro-2H-pyran-4-carbonitrile] registered a half-inhibitory concentration (IC50) of less than 0.5 nM.

In turn, `N#CC1(CNc2cccc(-c3cc(N[C@H]4CC[C@H](NCC5(C#N)CC5)CC4)ncc3Cl)n2)CCOCC1` [Compound 414, 4-(((5′-chloro-2′-((trans-4-(((1-cyanocyclopropyl)methyl)amino)cyclohexyl)amino)-[2,4′-bipyridin]-6-yl)amino)methyl)tetrahydro-2H-pyran-4-carbonitrile] displayed an IC50 of less than 0.5 nM. `COCCNC(=O)[C@H]1CC[C@H](Nc2cc(-c3cccc(NCC4(C#N)CCOCC4)n3)c(Cl)cn2)CC1` [Compound 455, trans-4-((5′-chloro-6-(((4-cyanotetrahydro-2H-pyran-4-yl)methyl)amino)-[2,4′-bipyridin]-2′-yl)amino)-N-(2-methoxyethyl)cyclohexane-carboxamide] returned an IC50 of 0.8 nM. This counts as sub-nanomolar. `COCCN[C@H]1CC[C@H](Nc2cc(-c3ccc(F)c(NCC4(C)CCOCC4)n3)c(Cl)cn2)CC1` [Compound 481, 5′-chloro-5-fluoro-N2′-(trans-4-((2-methoxyethyl)amino)cyclohexyl)-N6-((4-methyltetrahydro-2H-pyran-4-yl)methyl)-[2,4′-bipyridine]-2′,6-diamine]: the IC50 was less than 0.5 nM. In turn, `COC[C@]1(O)CC[C@H](Nc2cc(-c3cccc(NCC4(C#N)CCOCC4)n3)c(Cl)cn2)CC1` [Compound 449, 4-(((5′-chloro-2′-((trans-4-hydroxy-4-(methoxymethyl)cyclohexyl)amino)-[2,4′-bipyridin]-6-yl)amino)methyl)tetrahydro-2H-pyran-4-carbonitrile] gave an IC50 of 5.5 nM.

With `N#CC1(CNc2cccc(-c3cc(N[C@H]4CC[C@H](NC[C@H]5CCCO5)CC4)ncc3F)n2)CCOCC1` [Compound 484, 4-(((5′-fluoro-2′-((trans-4-((((R)-tetrahydrofuran-2-yl)methyl)amino)cyclohexyl)amino)-[2,4′-bipyridin]-6-yl)amino)methyl)tetrahydro-2H-pyran-4-carbonitrile], the IC50 is less than 0.5 nM.

On to `COCCO[C@H]1CC[C@H](Nc2cc(-c3cccc(NCC4(C#N)CCOCC4)n3)c(Cl)cn2)CC1` [Compound 415, 4-(((5′-chloro-2′-((trans-4-(2-methoxyethoxy)cyclohexyl)amino)-[2,4′-bipyridin]-6-yl)amino)methyl)tetrahydro-2H-pyran-4-carbonitrile], for which the concentration for half-maximal inhibition (IC50) amounted to 4.9 nM. `COC[C@H](C)N[C@H]1CC[C@H](Nc2cc(-c3ccc(F)c(NC[C@H]4CCOC(C)(C)C4)n3)c(Cl)cn2)CC1` [Compound 463, 5′-chloro-N6-(((S)-2,2-dimethyltetrahydro-2H-pyran-4-yl)methyl)-5-fluoro-N2′-(trans-4-(((S)-1-methoxypropan-2-yl)amino)cyclohexyl)-[2,4′-bipyridine]-2′,6-diamine] had an IC50 of 1.9 nM. For the compound `COC[C@@H](C)N[C@H]1CC[C@H](Nc2cc(-c3cncc(OCC4(C#N)CCOCC4)n3)c(Cl)cn2)CC1` [Compound 509, 4-(((6-(5-chloro-2-((trans-4-(((R)-1-methoxypropan-2-yl)amino)cyclohexyl)amino)pyridin-4-yl)pyrazin-2-yl)oxy)methyl)tetrahydro-2H-pyran-4-carbonitrile], the IC50 was determined as 1.1 nM. Take `CC(O)(C(=O)N[C@H]1CC[C@H](Nc2cc(-c3cccc(NCC4(C#N)CCOCC4)n3)c(Cl)cn2)CC1)C(F)(F)F` (stereo partly drawn) [Compound 431, N-(trans-4-((5′-chloro-6-(((4-cyanotetrahydro-2H-pyran-4-yl)methyl)amino)-[2,4′-bipyridin]-2′-yl)amino)cyclohexyl)-3,3,3-trifluoro-2-hydroxy-2-methylpropanamide]: the IC50 was 1.7 nM. Next, `N#CC1(CNc2cccc(-c3cc(N[C@H]4CC[C@H](NC[C@@H]5CCCO5)CC4)ncc3Cl)n2)CCOCC1` [Compound 472, 4-(((5′-chloro-2′-((trans-4-((((S)-tetrahydrofuran-2-yl)methyl)amino)cyclohexyl)amino)-[2,4′-bipyridin]-6-yl)amino)methyl)tetrahydro-2H-pyran-4-carbonitrile]: less than 0.5 nM; `COC[C@@H](C)N[C@H]1CC[C@H](Nc2cc(-c3cccc(NCC4(C#N)CC4)n3)c(F)cn2)CC1` [Compound 480, 1-(((5′-fluoro-2′-((trans-4-(((R)-1-methoxypropan-2-yl)amino)cyclohexyl)amino)-[2,4′-bipyridin]-6-yl)amino)methyl)cyclopropane-carbonitrile]: less than 0.5 nM; `CC1(CN[C@H]2CC[C@H](Nc3cc(-c4cccc(NCC5(C#N)CCOCC5)n4)c(Cl)cn3)CC2)COC1` [Compound 430, 4-(((5′-chloro-2′-((trans-4-(((3-methyloxetan-3-yl)methyl)amino)cyclohexyl)amino)-[2,4′-bipyridin]-6-yl)amino)methyl)tetrahydro-2H-pyran-4-carbonitrile]: 1 nM. `N#CC1(CNc2cccc(-c3cc(N[C@H]4CC[C@@H](N)CC4)ncc3Cl)n2)CCOCC1` [Compound 465, 4-(((2′-((cis-4-aminocyclohexyl)amino)-5′-chloro-[2,4′-bipyridin]-6-yl)amino)methyl)tetrahydro-2H-pyran-4-carbonitrile] displayed an IC50 of 1.2 nM. Regarding `N#CC1(CNc2cccc(-c3cc(N[C@H]4CC[C@H](NC[C@@H]5CCCO5)CC4)ncc3F)n2)CCOCC1` [Compound 483, 4-(((5′-fluoro-2′-((trans-4-((((S)-tetrahydrofuran-2-yl)methyl)amino)cyclohexyl)amino)-[2,4′-bipyridin]-6-yl)amino)methyl)tetrahydro-2H-pyran-4-carbonitrile], the IC50 was less than 0.5 nM. To `CC1(CNc2nc(-c3cc(N[C@H]4CC[C@@H](N)CC4)ncc3Cl)ccc2F)CCOCC1` [Compound 466] belongs 3.9 nM; to `COC[C@]1(O)CC[C@@H](Nc2cc(-c3cccc(NCC4CCOCC4)n3)c(Cl)cn2)CC1` [Compound 447, Cis-4-((5′-chloro-6-(((tetrahydro-2H-pyran-4-yl)methyl)amino)-[2,4′-bipyridin]-2′-yl)amino)-1-(methoxymethyl)cyclohexanol], 42 nM; to `COCCN[C@@H]1CC[C@@H](Nc2cc(-c3cccc(NCC4(C#N)CCOCC4)n3)c(Cl)cn2)C1` [Compound 409, 4-(((5′-chloro-2′-(((1R,3R)-3-((2-methoxyethyl)amino)cyclopentyl)amino)-[2,4′-bipyridin]-6-yl)amino)methyl)tetrahydro-2H-pyran-4-carbonitrile], 0.6 nM.

`COC[C@]1(O)CC[C@@H](Nc2cc(-c3cccc(NCC4(C#N)CCOCC4)n3)c(Cl)cn2)CC1` [Compound 448, 4-(((5′-chloro-2′-((cis-4-hydroxy-4-(methoxymethyl)cyclohexyl)amino)-[2,4′-bipyridin]-6-yl)amino)methyl)tetrahydro-2H-pyran-4-carbonitrile] had an IC50 of 1.1 nM. Take `N#CC1(CNc2cccc(-c3cc(N[C@H]4CC[C@H](CNS(=O)(=O)c5ccccc5)CC4)ncc3Cl)n2)CCOCC1` [Compound 496, N-((trans-4-((5′-chloro-6-(((4-cyanotetrahydro-2H-pyran-4-yl)methyl)amino)-[2,4′-bipyridin]-2′-yl)amino)cyclohexyl)methyl) benzenesulfonamide]: the IC50 was less than 0.5 nM. Next, `N#CC1(CNc2cccc(-c3cc(N[C@H]4CC[C@H](N[C@H]5CCOC5)CC4)ncc3Cl)n2)CCOCC1` [Compound 469, 4-(((5′-chloro-2′-((trans-4-(((S)-tetrahydrofuran-3-yl)amino)cyclohexyl)amino)-[2,4′-bipyridin]-6-yl)amino)methyl)tetrahydro-2H-pyran-4-carbonitrile]: less than 0.5 nM.

Take `N#CC1(CNc2cccc(-c3cc(N[C@H]4CC[C@H](N)CC4)ncc3F)n2)CC1` [Compound 486, 1-(((2′-((trans-4-aminocyclohexyl)amino)-5′-fluoro-[2,4′-bipyridin]-6-yl)amino)methyl)cyclopropane-carbonitrile]: the IC50 was less than 0.5 nM. `N#CC1(CNc2cccc(-c3cc(N[C@H]4CC[C@H](CN)CC4)ncc3Cl)n2)CCOCC1` [Compound 493, 4-(((2′-((trans-4-(aminomethyl)cyclohexyl)amino)-5′-chloro-[2,4′-bipyridin]-6-yl)amino)methyl)tetrahydro-2H-pyran-4-carbonitrile] registered an IC50 of less than 0.5 nM.

The compound `N#CC1(CNc2cccc(-c3cc(N[C@H]4CC[C@H](N5CCOCC5)CC4)ncc3Cl)n2)CCOCC1` [Compound 442, 4-(((5′-chloro-2′-((trans-4-morpholinocyclohexyl)amino)-[2,4′-bipyridin]-6-yl)amino)methyl)tetrahydro-2H-pyran-4-carbonitrile] registered an IC50 of 0.6 nM.

`CO[C@H]1C[C@@H](Nc2cc(-c3cccc(NCC4(C#N)CCOCC4)n3)c(Cl)cn2)CC[C@@H]1N` [Compound 439, 4-(((2′-(((1S,3S,4S)-4-amino-3-methoxycyclohexyl)amino)-5′-chloro-[2,4′-bipyridin]-6-yl)amino)methyl)tetrahydro-2H-pyran-4-carbonitrile] showed an IC50 of 10 nM. Regarding `N#CC1(CNc2cccc(-c3cc(N[C@H]4CC[C@H](NCC5CCCO5)CC4)ncc3F)n2)CCOCC1` (stereo partly drawn) [Compound 482, 4-(((5′-fluoro-2′-((trans-4-(((tetrahydrofuran-2-yl)methyl)amino)cyclohexyl)amino)-[2,4′-bipyridin]-6-yl)amino)methyl)tetrahydro-2H-pyran-4-carbonitrile], the IC50 is less than 0.5 nM. Next, `COC[C@@H](C)N[C@H]1CC[C@H](Nc2cc(-c3cncc(NCC4(C#N)CCOCC4)n3)c(Cl)cn2)CC1` [Compound 507, 4-(((6-(5-chloro-2-((trans-4-(((R)-1-methoxypropan-2-yl)amino)cyclohexyl)amino)pyridin-4-yl)pyrazin-2-yl)amino)methyl)tetrahydro-2H-pyran-4-carbonitrile]: less than 0.5 nM; `N#CC1(CNc2cccc(-c3cc(N[C@H]4CC[C@@H](O)C4)ncc3Cl)n2)CCOCC1` (relative stereo) [Example 404]: less than 0.5 nM.
